Laboratory results published in US20190159450A1, “PYRIDINE-BASED COMPOUND INCLUDING ISOXAZOLINE RING AND USE THEREOF AS HERBICIDE” (MOGHU RESEARCH CENTER LTD., priority 2016, published 2019).

Experiments:
Format in all cases: in vivo
[1] = tested on: rice; assay: Herbicidal activity test, pre-weeds emergence treatment (crop damage); conditions: assessed 2 to 3 weeks after spraying, scale 0-10 (0: no effect, 10: complete death)
Experimental: (§1) A rectangular plastic pot with a surface area of 300 cm^2 was filled with sandy loam soil and mixed soil at a ratio of 1:1, and four kinds of weeds including Quamoclit pennata, Abutilon theophrasti Medicus, and Aeschynomene indica, Xanthium strumarium were sown therein. In another pot made in the same way, three kinds of crop seeds including maize, wheat, and rice were sown. The pots were watered and one day later, a medicament was sprayed thereon. The spraying was performed by using a track sprayer (R&D Sprayer, USA) equipped with Teejet 8002EVS (Spraying Systems Co., USA) nozzle, and the spray amount was controlled to be 1000 L/ha. A spray solution was prepared by dissolving the compound of each example or a control material in acetone, and then, adding the same amount of 0.1% (v/v) tween 20 aqueous solution thereto. The spray amount was 200 g/ha. The pots were placed in a greenhouse in which the temperature was maintained at 25° C. to 30° C. during the day and 15° C. to 25° C. during the night, and was regularly watered. After 2 to 3 weeks from the spraying of the compounds or the control material, the efficacy and the damages on each weed and each crop were assessed according to the scale of 0-10 (0: no effect, 10: complete death) scale and the results are shown in Table 3 below.
(§2) Pots for crops and weeds were prepared in the same manner as the test method illustrated in Table 3, and three kinds of weeds selected from Quamoclit pennata, Abutilon theophrasti Medicus, and Aeschynomene indica, Xanthium strumarium were used.

[2] = tested on: wheat; assay: as above; conditions: assessed 2 to 3 weeks after spraying, scale 0-10 (0: no effect, 10: complete death)
Experimental: as §1, §2

[3] = tested on: maize; assay: as above; conditions: assessed 2 to 3 weeks after spraying, scale 0-10 (0: no effect, 10: complete death)
Experimental: as §1, §2

[4] = tested on: Xanthium strumarium; assay: Herbicidal activity test, post-weeds emergence treatment; conditions: assessed after 2 to 3 weeks, 0: no effect, 10: complete death
Experimental: as §1
(§3) Pots for crops and weeds were prepared in the same manner as in Experimental Example 1, and then, when the crops and the weeds were raised up to 2 weeks roughly on a third-leaf stage, the compounds and the control material were sprayed thereon in the same manner as described above. The spray amount was 200 g/ha. After 2 to 3 weeks from the spraying of the test substance or the control substance, the efficacy and the damages on each weed and each crop were assessed according to the scale of 0-10 (0: no effect, 10: complete death) scale.
as §2, with “5,” for “3,”, “four” for “three”, “used. The spray amount was 200 g/ha for crops and 50 g/ha for weeds.” for “used.”

[5] = tested on: Abutilon theophrasti Medicus; assay: as above; conditions: assessed after 2 to 3 weeks, 0: no effect, 10: complete death
Experimental: as §1, §3
as §2, with “5,” for “3,”, “four” for “three”, “used. The spray amount was 200 g/ha for crops and 50 g/ha for weeds.” for “used.”

[6] = tested on: Quamoclit pennata; assay: as above; conditions: assessed after 2 to 3 weeks, 0: no effect, 10: complete death
Experimental: as §1, §3
as §2, with “5,” for “3,”, “four” for “three”, “used. The spray amount was 200 g/ha for crops and 50 g/ha for weeds.” for “used.”

[7] = tested on: Aeschynomene indica; assay: as above; conditions: assessed after 2 to 3 weeks, 0: no effect, 10: complete death
Experimental: as §1, §3
as §2, with “5,” for “3,”, “four” for “three”, “used. The spray amount was 200 g/ha for crops and 50 g/ha for weeds.” for “used.”

[8] = tested on: rice; assay: Herbicidal activity test, post-weeds emergence treatment (crop damage); conditions: assessed after 2 to 3 weeks, 0: no effect, 10: complete death
Experimental: as §1, §3
as §2, with “5,” for “3,”, “four” for “three”, “used. The spray amount was 200 g/ha for crops and 50 g/ha for weeds.” for “used.”

[9] = tested on: wheat; assay: as above; conditions: assessed after 2 to 3 weeks, 0: no effect, 10: complete death
Experimental: as §1, §3
as §2, with “5,” for “3,”, “four” for “three”, “used. The spray amount was 200 g/ha for crops and 50 g/ha for weeds.” for “used.”

[10] = tested on: maize; assay: as above; conditions: assessed after 2 to 3 weeks, 0: no effect, 10: complete death
Experimental: as §1, §3
as §2, with “5,” for “3,”, “four” for “three”, “used. The spray amount was 200 g/ha for crops and 50 g/ha for weeds.” for “used.”

[11] = tested on: Xanthium strumarium; assay: Herbicidal activity test, pre-weeds emergence treatment; conditions: assessed 2 to 3 weeks after spraying, scale 0-10 (0: no effect, 10: complete death)
Experimental: as §1, §2

[12] = tested on: Abutilon theophrasti Medicus; assay: as above; conditions: assessed 2 to 3 weeks after spraying, scale 0-10 (0: no effect, 10: complete death)
Experimental: as §1, §2

[13] = tested on: Quamoclit pennata; assay: as above; conditions: assessed 2 to 3 weeks after spraying, scale 0-10 (0: no effect, 10: complete death)
Experimental: as §1, §2

[14] = tested on: Aeschynomene indica; assay: as above; conditions: assessed 2 to 3 weeks after spraying, scale 0-10 (0: no effect, 10: complete death)
Experimental: as §1, §2

[15] = spray amount 50 g/ha for weeds, Table 6
[16] = spray amount 200 g/ha for crops, Table 6

Row | Structure (SMILES) | PRE ORYSA (rice), damage score ([1]; Table 3, 200 g/ha) | PRE TRZAW (wheat), damage score ([2]; Table 3, 200 g/ha) | PRE ZEAMX (maize), damage score ([3]; Table 3, 200 g/ha) | XANST (Xanthium strumarium) herbicidal efficacy, scale of 0-10 ([4]; spray amount 200 g/ha, Table 5) | ABUTH (Abutilon theophrasti Medicus) herbicidal efficacy, scale of 0-10 ([5]; spray amount 200 g/ha, Table 5) | IPOAN (Quamoclit pennata) herbicidal efficacy, scale of 0-10 ([6]; spray amount 200 g/ha, Table 5) | AESIN (Aeschynomene indica) herbicidal efficacy, scale of 0-10 ([7]; spray amount 200 g/ha, Table 5) | ORYSA (rice) damage, scale of 0-10 ([8]; spray amount 200 g/ha, Table 5) | TRZAW (wheat) damage, scale of 0-10 ([9]; spray amount 200 g/ha, Table 5) | ZEAMX (maize) damage, scale of 0-10 ([10]; spray amount 200 g/ha, Table 5) | PRE XANST (Xanthium strumarium), efficacy score ([11]; Table 3, 200 g/ha) | PRE ABUTH (Abutilon theophrasti Medicus), efficacy score ([12]; Table 3, 200 g/ha) | PRE IPOAN (Quamoclit pennata), efficacy score ([13]; Table 3, 200 g/ha) | PRE AESIN (Aeschynomene indica), efficacy score ([14]; Table 3, 200 g/ha) | PRE ORYSA (rice), damage score ([1]; Table 4, 200 g/ha) | PRE TRZAW (wheat), damage score ([2]; Table 4, 200 g/ha) | PRE ZEAMX (maize), damage score ([3]; Table 4, 200 g/ha) | XANST (Xanthium strumarium) herbicidal efficacy, scale of 0-10 [4, 15] | ABUTH (Abutilon theophrasti Medicus) herbicidal efficacy, scale of 0-10 [5, 15] | IPOAN (Quamoclit pennata) herbicidal efficacy, scale of 0-10 [6, 15] | further results
1 | COC(=O)c1nc(C2CC(Cl)=NO2)cc(NC(C)=O)c1Cl (stereo not drawn) [Compound 1, methyl 4-acetamido-3-chloro-6-(3-chloro-4,5-dihydroisoxazol-5-yl)picolinate] | 0 | 1 | 0 | 10 | 8 | 8 | 10 | 1 | 1 | 0 | 9 | 8 | 9 | 10 | – | – | – | – | – | – | –
2 | COC(=O)c1nc(C2CC(Br)=NO2)cc(NC(C)=O)c1Cl (stereo not drawn) [Compound 3, methyl 4-acetamido-3-chloro-6-(3-bromo-4,5-dihydroisoxazol-5-yl)picolinate] | 0 | 0 | 0 | 10 | 3 | 6 | 10 | 0 | 0 | 0 | 8 | 10 | 8 | 10 | – | – | – | – | – | – | –
3 | COC(=O)c1nc(C2CC(C(F)(F)F)=NO2)cc(NC(C)=O)c1Cl (stereo not drawn) [Compound 4, methyl 4-acetamido-3-chloro-6-(3-(trifluoromethyl)-4,5-dihydroisoxazol-5-yl)picolinate] | 0 | 0 | 0 | 8 | 3 | 3 | 10 | 0 | 0 | 0 | 6 | 6 | 7 | 8 | – | – | – | – | – | – | –
4 | COC(=O)c1nc(C2CC(Br)=NO2)cc(N)c1Cl (stereo not drawn) [Compound 33, methyl 4-amino-3-chloro-6-(3-bromo-4,5-dihydroisoxazol-5-yl)picolinate] | – | – | – | – | – | – | – | – | – | – | – | – | – | – | 0 | 0 | 2 | 10 | 7 | 5 | AESIN (Aeschynomene indica) herbicidal efficacy, scale of 0-10 [7, 15]: 9; ORYSA (rice) damage, scale of 0-10 [8, 16]: 0; TRZAW (wheat) damage, scale of 0-10 [9, 16]: 0; ZEAMX (maize) damage, scale of 0-10 [10, 16]: 0; PRE XANST (Xanthium strumarium), efficacy score ([11]; Table 4, 200 g/ha): 10; PRE ABUTH (Abutilon theophrasti Medicus), efficacy score ([12]; Table 4, 200 g/ha): 6; PRE IPOAN (Quamoclit pennata), efficacy score ([13]; Table 4, 200 g/ha): 6; PRE AESIN (Aeschynomene indica), efficacy score ([14]; Table 4, 200 g/ha): 10
5 | Nc1cc(C2CC(Br)=NO2)nc(C(=O)O)c1Cl (stereo not drawn) [Compound 34, 4-amino-3-chloro-6-(3-bromo-4,5-dihydroisoxazol-5-yl)picolinic acid] | – | – | – | – | – | – | – | – | – | – | – | – | – | – | 0 | 0 | 0 | 10 | 6 | 3 | AESIN (Aeschynomene indica) herbicidal efficacy, scale of 0-10 [7, 15]: 10; ORYSA (rice) damage, scale of 0-10 [8, 16]: 2; TRZAW (wheat) damage, scale of 0-10 [9, 16]: 0; ZEAMX (maize) damage, scale of 0-10 [10, 16]: 0; PRE XANST (Xanthium strumarium), efficacy score ([11]; Table 4, 200 g/ha): 10; PRE ABUTH (Abutilon theophrasti Medicus), efficacy score ([12]; Table 4, 200 g/ha): 9; PRE IPOAN (Quamoclit pennata), efficacy score ([13]; Table 4, 200 g/ha): 10; PRE AESIN (Aeschynomene indica), efficacy score ([14]; Table 4, 200 g/ha): 10
6 | COC(=O)c1nc(C2CC(Cl)=NO2)cc(N)c1Cl (stereo not drawn) [Compound 37, methyl 4-amino-3-chloro-6-(3-chloro-4,5-dihydroisoxazol-5-yl)picolinate] | 0 | 0 | 0 | 10 | 10 | 8 | 10 | 1 | 1 | 0 | 10 | 10 | 10 | 10 | 1 | 0 | 0 | 10 | 10 | 8 | AESIN (Aeschynomene indica) herbicidal efficacy, scale of 0-10 [7, 15]: 10; ORYSA (rice) damage, scale of 0-10 [8, 16]: 0; TRZAW (wheat) damage, scale of 0-10 [9, 16]: 0; ZEAMX (maize) damage, scale of 0-10 [10, 16]: 0; PRE XANST (Xanthium strumarium), efficacy score ([11]; Table 4, 200 g/ha): 10; PRE ABUTH (Abutilon theophrasti Medicus), efficacy score ([12]; Table 4, 200 g/ha): 10; PRE IPOAN (Quamoclit pennata), efficacy score ([13]; Table 4, 200 g/ha): 7; PRE AESIN (Aeschynomene indica), efficacy score ([14]; Table 4, 200 g/ha): 10
7 | Nc1cc(C2CC(Cl)=NO2)nc(C(=O)O)c1Cl (stereo not drawn) [Compound 38, 4-amino-3-chloro-6-(3-chloro-4,5-dihydroisoxazol-5-yl)picolinic acid] | 7 | 2 | 0 | 10 | 10 | 9 | 10 | 3 | 0 | 1 | 10 | 10 | 10 | 10 | – | – | – | – | – | – | –
8 | COC(=O)c1nc(C2CC(C(F)(F)F)=NO2)cc(N)c1Cl (stereo not drawn) [Compound 39, methyl 4-amino-3-chloro-6-(3-trifluoromethyl-4,5-dihydroisoxazol-5-yl)picolinate] | 1 | 0 | 0 | 10 | 3 | 4 | 10 | 0 | 0 | 0 | 6 | 4 | 6 | 8 | – | – | – | – | – | – | –
